Source: patent US8772286B2, “MK2 inhibitors” (Merck Sharp & Dohme B.V., priority 2009, dated 2014)
Converted amounts (≈) assume the structure as drawn. Like-named read-outs stand apart in the source and are kept apart here.

Experiments:
[1] = Solubility determination of MK2 inhibitors (kinetic aqueous solubility, UPLC); format: physicochemical; settings: aqueous buffer (system solution from pION inc.), 22 °C, pH 7.4, aqueous buffer, kinetic from dmso stock
Experimental: The solubility can be determined using the Automated Kinetic Aqueous Solubility (AKASol) method, which is an HPLC-UV based method. The method is derived from the classical saturated shake-flask solubility method which has been adapted to the 96-well microtitre plate format, allowing the use of DMSO stock solutions. The solubility is determined by measuring the amount of compound in a saturated aqueous solution, quantified by an external calibration curve of the compound dissolved in DMSO. The solubility (mg/L) is measured at pH 7.4, at room temperature and the final concentration of DMSO in the sample solution is 1%.
The samples were prepared from 10 mM DMSO stock solutions. For each compound under investigation, a volume (9 μL) of the DMSO stock solution is transferred from the DMSO stock solution into 891 μL of buffer solution (system solution from pION inc.) in a 96 deep well plate, which equates to approximately 1% DMSO, using the Packard Multiprobe II robot liquid handling system. The pH of the buffer is manually adjusted at pH 7.4 by adding NaOH. This procedure is done in duplicate for each sample. After shaking for 24 h on a vortex mixer (Heidolph, Titramax 101) at 450 rpm and at room temperature (21-23° C.), 300 uL of the incubated sample is transferred from the deep well plate to a filter plate (PVDF, 0.45 um) on a vacuum manifold. To the filtrate (150 uL) 1-propanol (50 uL) is added to suppress precipitation and this solution is then analysed by UPLC. The solubility is determined using the calibration line previously prepared.
Preparation of the Standards and Built up of a Calibration Line
The calibration line is built with different concentrations of the test compound (standards), prepared from the same 10 mM DMSO stock solution. A volume (7 uL) from the same DMSO stock solution was diluted with DMSO (273 uL) leading to a solution with concentration of 0.25 mM. From this solution, three different injection volumes (0.2, 1, 1.8 uL) were injected on UPLC. The respective peak areas are plotted against amount of compound to build up the calibration line. The calibration line is used to determine the amount of dissolved compound in each sample, selecting the injection that gave peak areas closest to the peak area range of the calibration standards.

MK2 enzyme = target: T1, MK2 enzyme (Homo sapiens, UniProt P49137); assay: MK2 enzyme activity, IMAP fluorescence polarization assay; format: biochemical
T1 construct: MK2 enzyme (active enzyme (peptide 46-end (Millipore))); purchased Millipore
T1 sequence (P49137 46-400 limits assumed): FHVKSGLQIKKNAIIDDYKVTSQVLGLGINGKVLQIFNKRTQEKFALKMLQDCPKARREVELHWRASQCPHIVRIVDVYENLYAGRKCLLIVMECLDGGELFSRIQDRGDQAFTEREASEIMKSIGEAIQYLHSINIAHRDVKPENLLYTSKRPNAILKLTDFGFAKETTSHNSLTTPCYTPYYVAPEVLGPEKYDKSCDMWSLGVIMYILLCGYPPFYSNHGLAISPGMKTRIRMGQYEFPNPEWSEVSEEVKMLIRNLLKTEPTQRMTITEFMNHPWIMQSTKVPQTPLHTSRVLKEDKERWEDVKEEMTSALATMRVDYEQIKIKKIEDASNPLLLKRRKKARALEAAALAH
Source text: In another assay the MK2 kinase activity can be determined by using an IMAP assay (Immobilized Metal Assay for Phosphochemicals—based coupled assay). IMAP is a homogeneous fluorescence polarization (FP) assay based on affinity capture of phosphorylated peptide substrates. IMAP uses fluorescein-labeled peptide substrates that, upon phosphorylation by a protein kinase, bind to so called IMAP nanoparticles, which are derivatized with trivalent metal complexes. […] In such an assay, MK2 phosphorylates a fluorescein-labeled peptide substrate (see example 14).
MK2 enzyme activity is measured using the IMAP (immobilized metal ion affinity-based fluorescence polarization) assay as outlined below.
The enzyme is diluted to 100 U/mL the day before use in KR buffer (10 mM Tris-HCl, 10 mM MgCl2, 0.01% Tween-20, 0.05% NaN3, 2 mM DTT, pH 7.2) and stored overnight at −20° C.
The dilutions in DMSO are then diluted 50-fold in KR-buffer of which 5 μl is used in the assay, leading to a final compound concentration range in the assay from 10 μM to 0.316 nM.
After 60 min incubation at room temperature in the dark the FP signal is read. Fluorescence at 535 nm is measured using parallel and perpendicular filters to determine differences in rotation due to binding of the phosphorylated substrate peptide to the beads. Values are calculated as percentage of the difference in readout (ΔmPi) of the controls with and without ATP. EC50 values are determined by curve fitting of the experimental results using Activity Base.

[2] = pH 7.4, room temperature, about 1% DMSO, 24 h shaking, read-out: solubility
[3] = MK2 IMAP assay, 1 μM ATP, 30 min pre-incubation, 2 h room temperature, read-out: pEC50 value (converted)
[4] = Table 2, comparison compound of Formula (XVI), spiro ring without amine, MK2 IMAP assay, read-out: pEC50, Formula (XVI) (converted)

SMILES: O=C1NCC2(CCNCC2)c2[nH]c(-c3ccnc(-c4ccc(C(F)(F)F)cc4)n3)cc21 [1—17, 2′-(2-(4-(trifluoromethyl)phenyl)pyrimidin-4-yl)-5′,6′-dihydrospiro[piperidine-4,7′-pyrrolo[3,2-c]pyridin]-4′(1′H)-one]
- solubility at 24 h [1, 2]: ≥ 50 mg/L
- EC50 (MK2 enzyme; [3]): 3.16 to 31.6 nM

SMILES: O=C1NCC2(CCCC2)c2[nH]c(-c3ccnc(-c4cccc(F)c4)n3)cc21 [17_4 Formula (XVI)]
- EC50 (MK2 enzyme; [4]): 316 nM

SMILES: O=C1NCC2(CCNCC2)c2[nH]c(-c3ccnc(-c4nc5ccccc5s4)n3)cc21 [9—2, 2′-(2-(benzo[d]thiazol-2-yl)pyrimidin-4-yl)-5′,6′-dihydrospiro[piperidine-4,7′-pyrrolo[3,2-c]pyridin]-4′(1′H)-one]
- solubility at 24 h [1, 2]: ≥ 50 mg/L
- EC50 (MK2 enzyme; [3]): 3.16 to 31.6 nM

SMILES: Cc1ccc(-c2nccc(-c3cc4c([nH]3)C3(CCNC3)CNC4=O)n2)cc1 (centres unmarked) [6—3, 2′-(2-p-tolylpyrimidin-4-yl)-5′,6′-dihydrospiro[pyrrolidine-3,7′-pyrrolo[3,2-c]pyridin]-4′(1′H)-one]
- solubility at 24 h [1, 2]: ≥ 50 mg/L
- EC50 (MK2 enzyme; [3]): 3.16 to 31.6 nM

SMILES: O=C1NCC2(CCNCC2)c2[nH]c(-c3nc(-c4cnc5ccccc5c4)ncc3F)cc21 [4—3, 2′-(5-fluoro-2-(quinolin-3-yl)pyrimidin-4-yl)-5′,6′-dihydrospiro[piperidine-4,7′-pyrrolo[3,2-c]pyridin]-4′(1′H)-one]
- solubility at 24 h [1, 2]: ≥ 50 mg/L
- EC50 (MK2 enzyme; [3]): ≤ 3.16 nM

SMILES: O=C1NCC2(CCNCC2)c2[nH]c(-c3ccnc(-c4ccc5ccccc5c4)n3)cc21 [1—24, 2′-(2-(naphthalen-2-yl)pyrimidin-4-yl)-5′,6′-dihydrospiro[piperidine-4,7′-pyrrolo[3,2-c]pyridin]-4′(1′H)-one]
- solubility at 24 h [1, 2]: ≥ 50 mg/L
- EC50 (MK2 enzyme; [3]): 3.16 to 31.6 nM

SMILES: O=C(Nc1nccc(-c2cc3c([nH]2)C2(CCCNC2)CNC3=O)n1)c1ccc(C(F)(F)F)cc1 (centres unmarked) [Example 13—1, N-(4-(4′-oxo-1′,4′,5′,6′-tetrahydrospiro[piperidine-3,7′-pyrrolo[3,2-c]pyridine]-2′-yl)pyrimidin-2-yl)-4-(trifluoromethyl)benzamide]
- solubility at 24 h [1, 2]: 20 to 50 mg/L (≈ 42.5 to 106 µM)
- EC50 (MK2 enzyme; [3]): 31.6 to 316 nM

SMILES: O=C1NCC2(CCNCC2)c2[nH]c(-c3ccnc(-c4ccc5c(c4)OCCCO5)n3)cc21 [1—11, 2′-(2-(3,4-dihydro-2H-benzo[b][1,4]dioxepin-7-yl)pyrimidin-4-yl)-5′,6′-dihydrospiro[piperidine-4,7′-pyrrolo[3,2-c]pyridin]-4′(1′H)-one]
- solubility at 24 h [1, 2]: ≥ 50 mg/L
- EC50 (MK2 enzyme; [3]): 3.16 to 31.6 nM

SMILES: CC(C)c1cccc(-c2nccc(-c3cc4c([nH]3)C3(CCNCC3)CNC4=O)n2)c1 [1—14, 2′-(2-(3-isopropylphenyl)pyrimidin-4-yl)-5′,6′-dihydrospiro[piperidine-4,7′-pyrrolo[3,2-c]pyridin]-4′(1′H)-one]
- solubility at 24 h [1, 2]: 20 to 50 mg/L (≈ 49.8 to 125 µM)
- EC50 (MK2 enzyme; [3]): 31.6 to 316 nM

SMILES: O=C1NCC2(CCNCC2)c2[nH]c(-c3nc(-c4ccc(Cl)cc4F)ncc3F)cc21 [4—5, 2′-(2-(4-chloro-2-fluorophenyl)-5-fluoropyrimidin-4-yl)-5′,6′-dihydrospiro[piperidine-4,7′-pyrrolo[3,2-c]pyridin]-4′(1′H)-one]
- solubility at 24 h [1, 2]: ≥ 50 mg/L
- EC50 (MK2 enzyme; [3]): 3.16 to 31.6 nM

SMILES: CCC(=O)Nc1ccc(-c2nccc(-c3cc4c([nH]3)C3(CCNCC3)CNC4=O)n2)cn1 [1—9, N-(5-(4-(4′-oxo-1′,4′,5′,6′-tetrahydrospiro[piperidine-4,7′-pyrrolo[3,2-c]pyridine]-2′-yl)pyrimidin-2-yl)pyridin-2-yl)propionamide]
- solubility at 24 h [1, 2]: ≥ 50 mg/L
- EC50 (MK2 enzyme; [3]): 3.16 to 31.6 nM

SMILES: O=C1NCC2(CCNC2)c2[nH]c(-c3ccnc(-c4ccc5c(c4)OCO5)n3)cc21 (centres unmarked) [6—2, 2′-(2-(benzo[d][1,3]dioxol-5-yl)pyrimidin-4-yl)-5′,6′-dihydrospiro[pyrrolidine-3,7′-pyrrolo[3,2-c]pyridin]-4′(1′H)-one]
- solubility at 24 h [1, 2]: ≥ 50 mg/L
- EC50 (MK2 enzyme; [3]): 3.16 to 31.6 nM

SMILES: CC(=O)c1cccc(-c2nccc(-c3cc4c([nH]3)C3(CCNCC3)CNC4=O)n2)c1 [1—30, 2′-(2-(3-acetylphenyl)pyrimidin-4-yl)-5′,6′-dihydrospiro[piperidine-4,7′-pyrrolo[3,2-c]pyridin]-4′(1′H)-one]
- solubility at 24 h [1, 2]: ≥ 50 mg/L
- EC50 (MK2 enzyme; [3]): 3.16 to 31.6 nM

SMILES: Cc1cc(-c2nccc(-c3cc4c([nH]3)C3(CCNCC3)CNC4=O)n2)cc(C(C)(C)C)c1 [1—19, 2′-(2-(3-tert-butyl-5-methylphenyl)pyrimidin-4-yl)-5′,6′-dihydrospiro[piperidine-4,7′-pyrrolo[3,2-c]pyridin]-4′(1′H)-one]
- solubility at 24 h [1, 2]: ≥ 50 mg/L
- EC50 (MK2 enzyme; [3]): 31.6 to 316 nM

SMILES: O=C1NCC2(CCNCC2)c2[nH]c(-c3ccnc(-c4cc5ccccc5s4)n3)cc21 [1—28, 2′-(2-(benzo[b]thiophen-2-yl)pyrimidin-4-yl)-5′,6′-dihydrospiro[piperidine-4,7′-pyrrolo[3,2-c]pyridin]-4′(1′H)-one]
- solubility at 24 h [1, 2]: ≥ 50 mg/L
- EC50 (MK2 enzyme; [3]): 3.16 to 31.6 nM

SMILES: O=C1NCC2(CCNCC2)c2[nH]c(-c3ccnc(-c4ccc(Cl)c(Cl)c4)n3)cc21 [Example 1—13, 2′-(2-(3,4-dichlorophenyl)pyrimidin-4-yl)-5′,6′-dihydrospiro[piperidine-4,7′-pyrrolo[3,2-c]pyridin]-4′(1′H)-one]
- solubility at 24 h [1, 2]: ≥ 50 mg/L
- EC50 (MK2 enzyme; [3]): 3.16 to 31.6 nM

SMILES: Nc1ncc(-c2nccc(-c3cc4c([nH]3)C3(CCNCC3)CNC4=O)n2)cn1 [1—2, 2′-(2′-amino-2,5′-bipyrimidin-4-yl)-5′,6′-dihydrospiro[piperidine-4,7′-pyrrolo[3,2-c]pyridin]-4′(1′H)-one]
- solubility at 24 h [1, 2]: 20 to 50 mg/L (≈ 53.1 to 133 µM)
- EC50 (MK2 enzyme; [3]): ≤ 3.16 nM

SMILES: CC(=O)NCCN1CCC2(CC1)CNC(=O)c1cc(-c3ccnc(-c4cc5ccccc5o4)n3)[nH]c12 [Example 3—1, N-(2-(2′-(2-(benzofuran-2-yl)pyrimidin-4-yl)-4′-oxo-1′,4′,5′,6′-tetrahydrospiro[piperidine-4,7′-pyrrolo[3,2-c]pyridine]-1-yl)ethyl)acetamide]
- solubility at 24 h [1, 2]: ≥ 50 mg/L
- EC50 (MK2 enzyme; [3]): 3.16 to 31.6 nM

SMILES: O=C1NCC2(CCNCC2)c2[nH]c(-c3ccnc(-c4cccc(F)c4)n3)cc21 [1—5, 2′-(2-(3-fluorophenyl)pyrimidin-4-yl)-5′,6′-dihydrospiro[piperidine-4,7′-pyrrolo[3,2-c]pyridin]-4′(1′H)-one]
- solubility at 24 h [1, 2]: 20 to 50 mg/L (≈ 53 to 132 µM)
- EC50 (MK2 enzyme; [3]): 3.16 to 31.6 nM

SMILES: CC(C)Cc1ccc(-c2nccc(-c3cc4c([nH]3)C3(CCNCC3)CNC4=O)n2)cc1 [1—23, 2′-(2-(4-isobutylphenyl)pyrimidin-4-yl)-5′,6′-dihydrospiro[piperidine-4,7′-pyrrolo[3,2-c]pyridin]-4′(1′H)-one]
- solubility at 24 h [1, 2]: ≥ 50 mg/L
- EC50 (MK2 enzyme; [3]): 3.16 to 31.6 nM

SMILES: O=C1NCC2(CCNCC2)c2[nH]c(-c3ccnc(-c4ccc5c(c4)OCO5)n3)cc21 [16_5 Formula (I)]
- solubility at 24 h ([1]; Table 1, compound of Formula (I) with spiro ring, pH 7.4, read-out: Solubility pH 7.4 (mg/L), Formula (I)): 37 mg/L
- pEC50, Formula (I) (MK2 enzyme; Table 1, compound of Formula (I) with spiro ring, MK2 IMAP assay): 8.4

SMILES: O=C1NCC2(CCCC2)c2[nH]c(-c3ccnc(-c4cnc5ccccc5c4)n3)cc21 [17_3 Formula (XVI)]
- EC50 (MK2 enzyme; [4]): 251 nM

SMILES: O=C1NCCc2[nH]c(-c3ccnc(-c4cnc5ccccc5c4)n3)cc21 [16_2 Formula (XV)]
- EC50 (MK2 enzyme): 10 nM

SMILES: O=C1NCCc2[nH]c(-c3ccnc(-c4cnc5ccccc5c4)c3)cc21 [16_1 Formula (XV)]
- solubility at 24 h ([1]; Table 1, comparison compound of Formula (XV) without spiro ring, pH 7.4, read-out: Solubility pH 7.4 (mg/L), Formula (XV)): 2 mg/L
